Measurements taken from PMC5850045 (ERJ Open Research, 2018).
Where two headings read alike, the source gives them in different places.

Assays:
[1] = target: T1, α1A-adrenergic receptor (Homo sapiens, UniProt P35348); assay: Secondary radioligand binding assay
T1 sequence (P35348 1-466): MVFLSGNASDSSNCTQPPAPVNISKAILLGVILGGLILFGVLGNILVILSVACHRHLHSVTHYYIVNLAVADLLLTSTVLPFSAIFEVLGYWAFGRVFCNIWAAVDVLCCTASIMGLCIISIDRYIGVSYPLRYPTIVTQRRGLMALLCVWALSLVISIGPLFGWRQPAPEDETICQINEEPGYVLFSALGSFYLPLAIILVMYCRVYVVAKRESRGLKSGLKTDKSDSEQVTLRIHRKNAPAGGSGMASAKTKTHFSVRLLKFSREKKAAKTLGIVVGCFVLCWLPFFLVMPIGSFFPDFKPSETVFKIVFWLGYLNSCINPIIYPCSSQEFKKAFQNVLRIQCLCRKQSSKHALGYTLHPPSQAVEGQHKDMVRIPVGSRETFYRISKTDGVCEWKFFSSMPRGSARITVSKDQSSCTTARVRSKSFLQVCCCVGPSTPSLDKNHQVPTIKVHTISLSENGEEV

[2] = target: muscarinic M3 receptor (Homo sapiens, UniProt P20309); format: binding
Chain of muscarinic M3 receptor (P20309 whole entry): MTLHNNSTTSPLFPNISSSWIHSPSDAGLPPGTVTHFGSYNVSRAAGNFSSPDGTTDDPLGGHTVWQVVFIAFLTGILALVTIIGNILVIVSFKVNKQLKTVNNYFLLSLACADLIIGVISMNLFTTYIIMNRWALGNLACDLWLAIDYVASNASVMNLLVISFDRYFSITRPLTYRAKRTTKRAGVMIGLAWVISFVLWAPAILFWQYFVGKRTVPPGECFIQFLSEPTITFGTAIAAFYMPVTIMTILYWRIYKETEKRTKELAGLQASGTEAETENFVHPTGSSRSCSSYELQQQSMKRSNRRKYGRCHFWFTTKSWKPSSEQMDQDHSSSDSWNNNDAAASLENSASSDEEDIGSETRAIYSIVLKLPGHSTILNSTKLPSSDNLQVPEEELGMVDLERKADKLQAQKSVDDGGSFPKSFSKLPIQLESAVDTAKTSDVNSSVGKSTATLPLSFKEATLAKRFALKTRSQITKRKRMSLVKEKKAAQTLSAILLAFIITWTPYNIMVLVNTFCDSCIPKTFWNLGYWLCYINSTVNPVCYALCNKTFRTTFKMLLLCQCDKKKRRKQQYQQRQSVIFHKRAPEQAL

[3] = target: T2, serotonin transporter (Homo sapiens, UniProt P31645); assay: Secondary radioligand binding assay; conditions: low-affinity binding
T2 sequence (P31645 whole entry): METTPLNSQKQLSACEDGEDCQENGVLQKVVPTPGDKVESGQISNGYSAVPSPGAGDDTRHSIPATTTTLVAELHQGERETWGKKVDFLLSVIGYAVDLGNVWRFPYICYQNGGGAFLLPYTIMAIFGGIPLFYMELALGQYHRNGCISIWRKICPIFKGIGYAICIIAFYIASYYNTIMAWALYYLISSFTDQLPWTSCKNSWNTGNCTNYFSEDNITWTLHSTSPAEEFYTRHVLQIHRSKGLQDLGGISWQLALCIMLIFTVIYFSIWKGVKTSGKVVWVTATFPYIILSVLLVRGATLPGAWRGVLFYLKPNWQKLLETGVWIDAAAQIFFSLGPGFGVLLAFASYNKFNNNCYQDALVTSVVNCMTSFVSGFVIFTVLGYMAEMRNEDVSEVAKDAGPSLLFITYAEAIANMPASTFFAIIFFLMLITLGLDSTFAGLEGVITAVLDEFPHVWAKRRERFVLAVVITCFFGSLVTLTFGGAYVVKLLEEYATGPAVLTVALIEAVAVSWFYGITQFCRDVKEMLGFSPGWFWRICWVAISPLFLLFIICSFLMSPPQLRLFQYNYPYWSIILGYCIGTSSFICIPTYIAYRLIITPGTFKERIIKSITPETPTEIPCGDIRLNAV

[4] = target: T3, 5-HT2C receptor (Homo sapiens, UniProt P28335); assay: Primary radioligand binding screen; conditions: 10 µM, n = 4
T3 sequence (P28335 33-458): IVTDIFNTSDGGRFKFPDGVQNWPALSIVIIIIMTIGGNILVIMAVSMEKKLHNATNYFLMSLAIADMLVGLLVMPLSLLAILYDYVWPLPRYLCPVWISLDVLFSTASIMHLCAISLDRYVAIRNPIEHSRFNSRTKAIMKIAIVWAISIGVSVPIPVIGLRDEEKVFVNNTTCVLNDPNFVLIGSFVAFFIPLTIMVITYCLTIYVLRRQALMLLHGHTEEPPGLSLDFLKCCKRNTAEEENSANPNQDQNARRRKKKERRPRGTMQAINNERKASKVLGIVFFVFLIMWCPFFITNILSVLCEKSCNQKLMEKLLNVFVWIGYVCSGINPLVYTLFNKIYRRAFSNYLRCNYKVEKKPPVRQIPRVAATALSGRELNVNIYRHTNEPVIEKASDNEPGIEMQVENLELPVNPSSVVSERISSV

[5] = target: T1, α1A-adrenergic receptor; assay: Primary radioligand binding screen; conditions: 10 µM, n = 4
[6] = target: T2, serotonin transporter; assay: Primary radioligand binding screen; conditions: 10 µM, n = 4
[7] = system: rat colon; assay: Ex vivo rat colon force contraction experiment; conditions: for contractile response in the colon: colon pre-treated with β3 receptor selective antagonist SR59230A; for effects on colonic contractions: ex vivo rat colon preparation
[8] = target: T3, 5-HT2C receptor; assay: Secondary radioligand binding assay
[9] = target: T4, β3-adrenergic receptor (Homo sapiens, UniProt P13945); assay: Secondary radioligand binding assay
T4 sequence (P13945 whole entry, species assumed): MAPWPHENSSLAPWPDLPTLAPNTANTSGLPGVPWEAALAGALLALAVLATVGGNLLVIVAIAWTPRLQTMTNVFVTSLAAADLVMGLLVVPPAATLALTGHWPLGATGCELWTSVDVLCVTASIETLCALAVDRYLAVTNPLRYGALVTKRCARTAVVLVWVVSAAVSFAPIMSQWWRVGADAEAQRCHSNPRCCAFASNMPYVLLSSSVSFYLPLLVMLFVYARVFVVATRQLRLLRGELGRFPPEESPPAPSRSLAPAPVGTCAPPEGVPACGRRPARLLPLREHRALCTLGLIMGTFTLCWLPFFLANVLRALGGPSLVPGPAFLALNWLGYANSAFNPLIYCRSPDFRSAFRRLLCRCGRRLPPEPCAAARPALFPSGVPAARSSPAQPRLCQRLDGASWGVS

[10] = target: T5, δ-opioid receptor (Homo sapiens, UniProt P41143); assay: Secondary radioligand binding assay
T5 sequence (P41143 whole entry): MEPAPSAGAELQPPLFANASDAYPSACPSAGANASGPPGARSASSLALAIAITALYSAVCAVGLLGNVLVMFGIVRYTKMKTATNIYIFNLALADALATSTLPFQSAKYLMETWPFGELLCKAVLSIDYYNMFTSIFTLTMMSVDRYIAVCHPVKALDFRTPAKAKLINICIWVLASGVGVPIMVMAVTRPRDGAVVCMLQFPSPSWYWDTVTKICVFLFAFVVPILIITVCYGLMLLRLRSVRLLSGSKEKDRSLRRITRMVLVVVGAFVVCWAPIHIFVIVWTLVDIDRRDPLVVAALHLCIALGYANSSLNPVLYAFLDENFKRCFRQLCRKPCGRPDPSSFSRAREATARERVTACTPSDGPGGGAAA

[11] = target: T4, β3-adrenergic receptor; assay: Primary radioligand binding screen; conditions: 10 µM, n = 4
[12] = target: dopamine transporter (Homo sapiens, UniProt Q01959); assay: Primary radioligand binding screen; conditions: 10 µM, n = 4
Chain of dopamine transporter (Q01959 whole entry): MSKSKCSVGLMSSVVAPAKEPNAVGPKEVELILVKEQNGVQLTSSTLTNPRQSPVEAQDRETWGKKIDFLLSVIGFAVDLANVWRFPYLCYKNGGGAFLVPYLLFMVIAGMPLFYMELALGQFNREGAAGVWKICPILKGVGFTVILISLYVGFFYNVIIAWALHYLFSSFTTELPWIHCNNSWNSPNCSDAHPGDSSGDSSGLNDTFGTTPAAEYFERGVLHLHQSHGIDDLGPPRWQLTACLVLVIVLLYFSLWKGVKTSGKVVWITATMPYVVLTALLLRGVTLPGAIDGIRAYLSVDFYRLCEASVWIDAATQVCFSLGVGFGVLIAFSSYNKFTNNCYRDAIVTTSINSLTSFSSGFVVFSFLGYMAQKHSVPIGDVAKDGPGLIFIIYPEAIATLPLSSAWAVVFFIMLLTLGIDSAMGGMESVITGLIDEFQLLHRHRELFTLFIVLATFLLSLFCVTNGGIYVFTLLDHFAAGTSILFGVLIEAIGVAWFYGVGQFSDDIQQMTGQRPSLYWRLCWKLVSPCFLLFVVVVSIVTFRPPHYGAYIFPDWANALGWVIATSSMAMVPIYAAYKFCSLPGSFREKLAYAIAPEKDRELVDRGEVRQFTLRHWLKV

[13] = target: T5, δ-opioid receptor; assay: Primary radioligand binding screen; conditions: 10 µM, n = 4
[14] = target: T6, α1B-adrenergic receptor (Homo sapiens, UniProt P35368); assay: Secondary radioligand binding assay
T6 sequence (P35368 1-520): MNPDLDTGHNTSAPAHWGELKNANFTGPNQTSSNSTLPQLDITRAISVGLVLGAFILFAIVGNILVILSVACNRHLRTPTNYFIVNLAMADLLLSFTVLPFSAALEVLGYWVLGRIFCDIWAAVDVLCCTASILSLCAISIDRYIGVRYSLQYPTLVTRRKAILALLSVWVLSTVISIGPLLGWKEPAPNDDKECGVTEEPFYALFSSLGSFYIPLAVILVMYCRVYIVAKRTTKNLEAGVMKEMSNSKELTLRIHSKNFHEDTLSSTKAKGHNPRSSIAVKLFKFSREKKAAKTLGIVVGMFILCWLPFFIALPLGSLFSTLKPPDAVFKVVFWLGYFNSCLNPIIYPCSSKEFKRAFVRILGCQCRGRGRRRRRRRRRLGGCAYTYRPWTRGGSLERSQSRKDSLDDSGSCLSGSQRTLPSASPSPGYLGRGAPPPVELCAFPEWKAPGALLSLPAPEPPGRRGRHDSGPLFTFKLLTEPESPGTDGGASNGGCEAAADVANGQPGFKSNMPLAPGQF

[15] = target: T7, α1D-adrenergic receptor (Homo sapiens, UniProt P25100); assay: Secondary radioligand binding assay
T7 sequence (P25100 1-572): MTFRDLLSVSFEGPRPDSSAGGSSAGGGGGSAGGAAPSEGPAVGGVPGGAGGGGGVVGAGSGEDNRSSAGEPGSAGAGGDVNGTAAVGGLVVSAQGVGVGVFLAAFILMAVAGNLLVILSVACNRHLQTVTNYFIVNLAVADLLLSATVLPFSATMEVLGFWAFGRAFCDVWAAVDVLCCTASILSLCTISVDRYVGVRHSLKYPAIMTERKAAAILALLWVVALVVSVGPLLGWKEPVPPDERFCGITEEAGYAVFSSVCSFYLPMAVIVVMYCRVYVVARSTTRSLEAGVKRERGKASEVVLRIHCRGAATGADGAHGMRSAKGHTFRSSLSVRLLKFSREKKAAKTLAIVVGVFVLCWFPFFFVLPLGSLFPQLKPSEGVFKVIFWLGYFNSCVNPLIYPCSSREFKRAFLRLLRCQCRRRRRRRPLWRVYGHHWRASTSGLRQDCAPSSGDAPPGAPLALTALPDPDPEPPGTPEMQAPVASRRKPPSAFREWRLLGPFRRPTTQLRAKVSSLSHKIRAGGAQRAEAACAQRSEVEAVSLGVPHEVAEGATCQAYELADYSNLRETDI

[16] = target: histamine H1 receptor (Homo sapiens, UniProt P35367); assay: Primary radioligand binding screen; conditions: 10 µM, n = 4
Chain of histamine H1 receptor (P35367 whole entry, species assumed): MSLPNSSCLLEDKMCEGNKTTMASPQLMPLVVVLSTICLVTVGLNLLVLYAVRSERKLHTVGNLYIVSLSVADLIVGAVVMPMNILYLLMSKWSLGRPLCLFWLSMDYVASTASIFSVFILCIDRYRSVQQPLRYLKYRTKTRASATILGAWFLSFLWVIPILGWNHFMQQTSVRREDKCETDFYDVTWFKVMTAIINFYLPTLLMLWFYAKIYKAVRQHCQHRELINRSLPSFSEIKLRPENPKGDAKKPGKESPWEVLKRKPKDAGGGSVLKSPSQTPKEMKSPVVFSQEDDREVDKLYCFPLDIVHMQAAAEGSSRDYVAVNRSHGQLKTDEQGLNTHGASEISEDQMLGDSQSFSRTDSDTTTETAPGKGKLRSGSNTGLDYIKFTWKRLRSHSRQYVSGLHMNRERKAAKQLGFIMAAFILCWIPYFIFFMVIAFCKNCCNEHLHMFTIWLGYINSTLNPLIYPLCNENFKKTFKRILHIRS

Question: For CC(C)(C)c1cc(C(C)(C)CO)c(O)cc1NC(=O)c1c[nH]c2ccccc2c1=O [iva-M1, hydroxymethylivacaftor], which Ki ([1]; low-affinity binding) is on record?
Answer: > 10 µM

Question: And the Ki [2]?
Answer: 1.83 µM

Question: And the pKi [2]?
Answer: 5.70±0.10

Question: And the Ki [3]?
Answer: > 10 µM

Question: And the “% displacement” value [4]?
Answer: 78.2%

Question: What about the “% displacement” value [5] of the same compound?
Answer: 79.9%

Question: And the “% displacement” value [6]?
Answer: 56.7%

Question: What does the source list for CC(C)(C)c1cc(C(C)(C)C(=O)O)c(O)cc1NC(=O)c1c[nH]c2ccccc2c1=O [iva-M6, ivacaftorcarboxylate]?
Answer: Ki ([1]; low-affinity binding): > 10 µM; Ki [3]: > 10 µM; contractile response in the colon [7]: significant contractile response; effects on colonic contractions [7]: no significant effects; % displacement [5]: 92.3%; % displacement [6]: 50.9%

Question: How did the Ki [8] turn out when CC(C)(C)c1cc(C(C)(C)C)c(NC(=O)c2c[nH]c3ccccc3c2=O)cc1O [ivacaftor] was run?
Answer: 0.866 µM

Question: What about the Ki [1] of the same compound?
Answer: > 10 µM

Question: What about the Ki [9] of the same compound?
Answer: 1.93 µM

Question: What about the Ki [10] of the same compound?
Answer: 2.59 µM

Question: What about the Ki ([3]; Ki) of the same compound?
Answer: > 10 µM

Question: What about the “contractile response in the colon” value [7] of the same compound?
Answer: significant contractile response

Question: What about the “effects on colonic contractions” value [7] of the same compound?
Answer: no significant effects

Question: And the “% displacement” value [4]?
Answer: 84.8%

Question: And the “% displacement” value [5]?
Answer: 58.3%

Question: And the “% displacement” value [11]?
Answer: 75.9%

Question: And the “% displacement” value [12]?
Answer: 55.2%

Question: And the “% displacement” value [13]?
Answer: 50.8%

Question: And the “% displacement” value [6]?
Answer: 61.1%

Question: For Cc1ccc(NC(=O)C2(c3ccc4c(c3)OC(F)(F)O4)CC2)nc1-c1cccc(C(=O)O)c1 [lumacaftor], which Ki [14] is on record?
Answer: > 10 µM

Question: What about the Ki [15] of the same compound?
Answer: 4.84 µM

Question: What about the “% displacement” value [16] of the same compound?
Answer: 71.2%

Question: With CC(C)(CO)c1cc2cc(NC(=O)C3(c4ccc5c(c4)OC(F)(F)O5)CC3)c(F)cc2n1C[C@@H](O)CO [tezacaftor] as the compound, how does the Ki [15] read?
Answer: 5.45 µM

Question: And the “% displacement” value [16]?
Answer: 53.3%
